# Test results reported in patent US20110098177A1, “METHODS AND COMPOSITIONS OF PLANT MICRONUTRIENTS” (NOVUS INTERNATIONAL INC., priority 2006, published 2011).
# How the values were obtained:
# Format in all cases: in vivo
# [1] = test system: soybean plants (Asgrow 1102); assay: Soybean seed yield (Examples 11-12)
# Description: (§1) The following experiments were performed on soybean plants growing in open-field plots during the summer and fall of 2008 at two production fields in West Central Minnesota. […] Trial design was a randomized complete block with 4 replications. Each plot measured 10' by 30' and consisted of five 22'' rows. Although all five rows of each plot were treated, only the center three rows (25' in length) of each plot were machine harvested. The two fields selected for these studies had historical Iron Deficiency Chlorosis (IDC) issues. The two field sites were planted by farmers with elite Roundup Ready commodity type soybean varieties with IDC tolerance (Asgrow 1102, Monsanto Corp.). […] BIOX-M was applied at a rate of 1.12 kg Mn/ha. […] All V4 treatments were applied in 10 gallons per acre of water with a backpack sprayer with a hand boom designed to “band” apply product directly to the plant row. Three nozzles with ConeJet TXVS-2 tips were oriented on either side and over the top of each row. This maximized the applied product to the plant tissue itself and minimized application of product to the soil surface. […] The V6 treatments (where applicable) were applied in 20 gallons per acre of water to increase the suspension of the BIOX products. Soybean seed was harvested after soybean maturity was reached (3 October at […], and 17 Oct. 2008 at Foxhome) and seed yields for each experimental treatment group were determined. In addition, seed samples from each treatment were dried to 13% moisture content, then analyzed for protein and oil content.
# [2] = test system: soybean plants (Asgrow 1102); assay: Soybean seed protein and oil content (Examples 11-12); settings: in %
# Description: as §1
# Tygress tomato plants [3] = assay: Yields of tomato fruits, greenhouse (Examples 4-6)
# Description: (§2) The following experiments were performed in a green house during the fall of 2008 and spring of 2009 at GCREC, Balm, University of Florida. Crop set-up, procedures and variables were as follows.
# (§3) Transplants of Tygress' tomato plants were planted in 2-gallon pots filled with commercial planting medium with nutrient concentration of Fe, Zn, Mn, Cu being negligible and insufficient for crop growth. Irrigation and non-micronutrient fertilizer were provided daily through microsprinklers at recommended rates for tomato production in Florida. No pesticides were used. Treatments were as described in Tables 4, 5 and 6 below.
# (§4) Treatments were applied at 5 WAT (weeks after transplanting) using a water volume of 200 mL/plant. A non-ionic surfactant was added. Foliar tissue analysis was performed at 3 and 7 WAT on the non-applied newest leaves. The concentrations of N, P, K, Mg, Ca, B, Zn, Mn, Fe, and Cu in the foliar tissue were determined from foliar analysis by a commercial laboratory at 2 weeks before treatment and again at 2 weeks after treatment.
# (§5) Deionized water was used for foliar applications, and other nutrients were applied as appropriate under non-limiting conditions. Marketable fruit were collected three times during the growing season, starting at 10 WAT (5 weeks after the initial treatment). Tomato fruit was graded as extra-large, large and medium. Non-marketable fruit were harvested and number and weight recorded but not sized.
# (§6) Experimental design was a randomized complete block design with 6 replications. Data were analyzed using a general linear model, and means were separated using an LSD test at the 5% significance level.
# Tygress tomato plants [4] = assay: Foliar nutrient concentration 2 weeks after treatment, greenhouse tomato (Examples 4-6); settings: Mn 1.0 lb/acre
# Description: as §2, §3, §4, §5, §6
# [5] = test system: soybean plants (Asgrow 1102); assay: ICP-MS micronutrient content of soybean trifoliates (Examples 11-12); set-up: Micronutrient content from ICP-MS analysis: Mn: unit not given here; settings: for Micronutrient content from ICP-MS analysis: Fe: in ppm (unit assumed)
# Description: The following experiments were performed on soybean plants growing in open-field plots during the summer and fall of 2008 at two production fields in West Central Minnesota. […] Trial design was a randomized complete block with 4 replications. Each plot measured 10' by 30' and consisted of five 22'' rows. Although all five rows of each plot were treated, only the center three rows (25' in length) of each plot were machine harvested. The two fields selected for these studies had historical Iron Deficiency Chlorosis (IDC) issues. The two field sites were planted by farmers with elite Roundup Ready commodity type soybean varieties with IDC tolerance (Asgrow 1102, Monsanto Corp.). […] BIOX-M was applied at a rate of 1.12 kg Mn/ha. […] All V4 treatments were applied in 10 gallons per acre of water with a backpack sprayer with a hand boom designed to “band” apply product directly to the plant row. Three nozzles with ConeJet TXVS-2 tips were oriented on either side and over the top of each row. This maximized the applied product to the plant tissue itself and minimized application of product to the soil surface. […] The V6 treatments (where applicable) were applied in 20 gallons per acre of water to increase the suspension of the BIOX products. […] The harvested plants were dried, ground, and subjected to Inductively Coupled Plasma-Mass Spectrometry (ICP-MS) analysis to determine plant micronutrient content.
# [6] = test system: soybean plants (Asgrow 1102); assay: Visual greenness ratings (1-5 scale) of soybean plants, open-field (Examples 11-12)
# Description: The following experiments were performed on soybean plants growing in open-field plots during the summer and fall of 2008 at two production fields in West Central Minnesota. […] Trial design was a randomized complete block with 4 replications. Each plot measured 10' by 30' and consisted of five 22'' rows. Although all five rows of each plot were treated, only the center three rows (25' in length) of each plot were machine harvested. The two fields selected for these studies had historical Iron Deficiency Chlorosis (IDC) issues. The two field sites were planted by farmers with elite Roundup Ready commodity type soybean varieties with IDC tolerance (Asgrow 1102, Monsanto Corp.). […] BIOX-M was applied at a rate of 1.12 kg Mn/ha. […] All V4 treatments were applied in 10 gallons per acre of water with a backpack sprayer with a hand boom designed to “band” apply product directly to the plant row. Three nozzles with ConeJet TXVS-2 tips were oriented on either side and over the top of each row. This maximized the applied product to the plant tissue itself and minimized application of product to the soil surface. […] The V6 treatments (where applicable) were applied in 20 gallons per acre of water to increase the suspension of the BIOX products.
compound,measurement,setting,value
"O=S(=O)([O-])[O-].[Mn+2] [BIOX-INM, manganese sulfate, reference compound]",Yield,"[1]; 3.27 kg/ha, V4, Foxhome",45.05 Bu/A
same,Yield,"[1]; 3.27 kg/ha, V4, Renville",27.13 Bu/A
same,Oil content (13% moisture),"[2]; 3.27 kg/ha, V4, Foxhome",18.32
same,Protein content (13% moisture),"[2]; 3.27 kg/ha, V4, Foxhome",32.63
same,Oil content (13% moisture),"[2]; 3.27 kg/ha, V4, Renville",19.80
same,Protein content (13% moisture),"[2]; 3.27 kg/ha, V4, Renville",32.36
same,Marketable tomato yield compared with non-treated control (in words),"Tygress tomato plants [3]; BIOX-M at 1.23 lb/acre or more, BIOX-EDM at 2.0 lb/acre, Mn-sulfate at 1.0 lb/acre",significantly higher than the non-treated control
same,Marketable yield,"Tygress tomato plants [3]; Mn 1.0 lb/acre, tomato fruits",4.0 a lb/plant
same,B concentration in tomato leaves,Tygress tomato plants [4]; 2 weeks after Mn treatment,25 ppm
same,Ca concentration in tomato leaves,Tygress tomato plants [4]; 2 weeks after Mn treatment,0.6%
same,Cu concentration in tomato leaves,Tygress tomato plants [4]; 2 weeks after Mn treatment,5 ppm
same,Fe concentration in tomato leaves,Tygress tomato plants [4]; 2 weeks after Mn treatment,117 ppm
same,K concentration in tomato leaves,Tygress tomato plants [4]; 2 weeks after Mn treatment,3.2%
same,Mg concentration in tomato leaves,Tygress tomato plants [4]; 2 weeks after Mn treatment,0.3%
same,N concentration in tomato leaves,Tygress tomato plants [4]; 2 weeks after Mn treatment,3.4%
same,P concentration in tomato leaves,Tygress tomato plants [4]; 2 weeks after Mn treatment,0.6%
same,Zn concentration in tomato leaves,Tygress tomato plants [4]; 2 weeks after Mn treatment,34 ppm
same,Foliar Mn concentration,Tygress tomato plants [4]; tomato leaves 2 weeks after Mn treatment,80.9 a ppm
same,Micronutrient content from ICP-MS analysis: Mn,"[5]; 3.27 kg/ha, V4, Foxhome",86.58
same,Micronutrient content from ICP-MS analysis: Fe,"[5]; 3.27 kg/ha, V4, Foxhome",87.35
same,Micronutrient content from ICP-MS analysis: Mn,"[5]; 3.27 kg/ha, V4, Renville",83.90
same,Micronutrient content from ICP-MS analysis: Fe,"[5]; 3.27 kg/ha, V4, Renville",101.17
same,Mean visual greenness scores (1-5),"[6]; 3.27 kg/ha, V4, Jul. 15, 2008 Rating, Foxhome",3.0
same,Mean visual greenness scores (1-5),"[6]; 3.27 kg/ha, V4, Jul. 15, 2008 Rating, Renville",2.4
same,Mean visual greenness scores (1-5),"[6]; 3.27 kg/ha, V4, Jul. 29, 2008 Rating, Foxhome","1.5 A, B, C"
same,Mean visual greenness scores (1-5),"[6]; 3.27 kg/ha, V4, Jul. 29, 2008 Rating, Renville",1.0
"EDDHA chelated iron [BIOX-EDDI, reference compound]",Yield,"[1]; 2.23 kg/ha, V4, V6, Foxhome",45.28 Bu/A
same,Yield,"[1]; 2.23 kg/ha, V4, V6, Renville",24.15 Bu/A
same,Yield,"[1]; 2.23 kg/ha, V4, Foxhome",38.98 Bu/A
same,Yield,"[1]; 2.23 kg/ha, V4, Renville",27.19 Bu/A
same,Oil content (13% moisture),"[2]; 2.23 kg/ha, V4, V6, Foxhome",18.56
same,Protein content (13% moisture),"[2]; 2.23 kg/ha, V4, V6, Foxhome",32.58
same,Oil content (13% moisture),"[2]; 2.23 kg/ha, V4, V6, Renville",19.97
same,Protein content (13% moisture),"[2]; 2.23 kg/ha, V4, V6, Renville",31.97
same,Oil content (13% moisture),"[2]; 2.23 kg/ha, V4, Foxhome",18.41
same,Protein content (13% moisture),"[2]; 2.23 kg/ha, V4, Foxhome",32.56
same,Oil content (13% moisture),"[2]; 2.23 kg/ha, V4, Renville",20.22
same,Protein content (13% moisture),"[2]; 2.23 kg/ha, V4, Renville",32.14
same,Micronutrient content from ICP-MS analysis: Mn,"[5]; 2.23 kg/ha, V4, V6, Foxhome",66.03
same,Micronutrient content from ICP-MS analysis: Fe,"[5]; 2.23 kg/ha, V4, V6, Foxhome",86.15
same,Micronutrient content from ICP-MS analysis: Mn,"[5]; 2.23 kg/ha, V4, V6, Renville",91.09
same,Micronutrient content from ICP-MS analysis: Fe,"[5]; 2.23 kg/ha, V4, V6, Renville",99.56
same,Micronutrient content from ICP-MS analysis: Mn,"[5]; 2.23 kg/ha, V4, Foxhome",91.22
same,Micronutrient content from ICP-MS analysis: Fe,"[5]; 2.23 kg/ha, V4, Foxhome",82.37
same,Micronutrient content from ICP-MS analysis: Mn,"[5]; 2.23 kg/ha, V4, Renville",86.45
same,Micronutrient content from ICP-MS analysis: Fe,"[5]; 2.23 kg/ha, V4, Renville",96.89
same,Mean visual greenness scores (1-5),"[6]; 2.23 kg/ha, V4, V6, Jul. 15, 2008 Rating, Foxhome",2.1
same,Mean visual greenness scores (1-5),"[6]; 2.23 kg/ha, V4, V6, Jul. 15, 2008 Rating, Renville",2.9
same,Mean visual greenness scores (1-5),"[6]; 2.23 kg/ha, V4, V6, Jul. 29, 2008 Rating, Foxhome",1.0 C
same,Mean visual greenness scores (1-5),"[6]; 2.23 kg/ha, V4, V6, Jul. 29, 2008 Rating, Renville",1.4
same,Mean visual greenness scores (1-5),"[6]; 2.23 kg/ha, V4, Jul. 15, 2008 Rating, Foxhome",2.8
same,Mean visual greenness scores (1-5),"[6]; 2.23 kg/ha, V4, Jul. 15, 2008 Rating, Renville",2.6
same,Mean visual greenness scores (1-5),"[6]; 2.23 kg/ha, V4, Jul. 29, 2008 Rating, Foxhome",2.0 A
same,Mean visual greenness scores (1-5),"[6]; 2.23 kg/ha, V4, Jul. 29, 2008 Rating, Renville",1.3
same,"Greenness of soybean plants compared to control, statement","[6]; BIOX-EDDI applied at V4 only, Foxhome site, 29 July rating",not when applied at V4 only
